Results: ChEMBL document CHEMBL5543073, “Synthesis, biological activity evaluation and mechanism analysis of new ganglioside GM3 derivatives as potential agents for nervous functional recovery” (Eur J Med Chem, 2024)
Active and inactive are the calls of the source. The rule behind the calls is not given here.

How the values were obtained:
SH-SY5Y [1] = assay: Cytotoxicity against human SH-SY5Y cells assessed as inhibition of cell viability incubated for 48 hrs by CCK8 assay; type: functional, cell-based
N2a [2] = assay: Cytotoxicity against mouse Neuro2a cells assessed as inhibition of cell viability incubated for 48 hrs by CCK8 assay; type: functional, cell-based
PC-12 = assay: Cytotoxicity against rat PC12 cells assessed as inhibition of cell viability incubated for 48 hrs by CCK8 assay; type: functional, cell-based; conditions: PC-12, 48 h
U-87 MG = assay: Cytotoxicity against human U-87 MG cells assessed as inhibition of cell viability incubated for 48 hrs by CCK8 assay; type: functional, cell-based, U-87MG ATCC
SH-SY5Y [3] = assay: Neuroprotective effect against MPP+-induced cytotoxicity in human SH-SY5Y cells assessed as increase in cell viability at 50 uM incubated for 24 hrs followed by MPP+ addition measured after 4 hrs by CCK8 assay relative to control; type: functional; conditions: time 28 hrs
N2a [4] = assay: Induction of cell proliferation in mouse Neuro2a cells at 50 uM incubated for 48 hrs by CCK8 assay; type: functional, cell-based
Neuron [5] = assay: Induction of neurite growth in mouse primary neurons assessed as increase in neurite length at 50 uM incubated for 48 hrs by imaging analysis; type: functional, cell-based
A-431 [6] = assay: Effect on Wnt7b gene expression in human A-431 cells by RNA-Seq analysis; type: functional, cell-based
A-431 [7] = assay: Effect on Rac2 gene expression in human A-431 cells by RNA-Seq analysis; type: functional, cell-based
[8] = Clearance in C57BL/6 mouse at 10 mg/kg, iv measured for 24 hrs; type: ADME, organism-based; conditions: in vivo
N2a [9] = assay: Downregulation of Wnt7b level in mouse Neuro2a cells at 50 uM incubated for 48 hrs by Western blot analysis; type: functional, cell-based
Neuron [10] = assay: Induction of neurite growth in mouse primary neurons assessed as increase in MAP2 level incubated for 48 hrs in presence of NGF by Western blot analysis; type: functional, cell-based
N2a [11] = assay: Effect on […] level in mouse Neuro2a cells at 50 uM incubated for 48 hrs by Western blot analysis; type: functional, cell-based
[12] = Half life in C57BL/6 mouse at 10 mg/kg, iv measured for 24 hrs; type: ADME, organism-based; conditions: in vivo
Neuron [13] = assay: Induction of neurite growth in mouse primary neurons at 50 uM incubated for 48 hrs in presence of NGF by imaging analysis; type: functional, cell-based

Row | Structure (SMILES) | IC50 (SH-SY5Y [1]) [µM] | IC50 (N2a [2]) [µM] | IC50 (PC-12) [µM] | IC50 (U-87 MG) [µM] | Activity (SH-SY5Y [3]) [%] | Activity (N2a [4]) | Activity (Neuron [5]) | Activity (A-431 [6]) | Activity (A-431 [7]) | CL [8] [µL/min/mg] | Activity (N2a [9]) | Activity (Neuron [10]) | Activity (N2a [11]) | half-life [12] [h] | Activity (Neuron [13])
1 | CCCCCCCCCCCCC/C=C/[C@@H](O)[C@H](CO[C@@H]1O[C@H](CO)[C@@H](O[C@@H]2O[C@H](CO)[C@H](O)[C@H](O[C@]3(C(=O)O)C[C@H](O)[C@@H](NC(=O)c4ccncc4)C([C@@H](O)[C@H](O)CO)O3)[C@H]2O)[C@H](O)[C@H]1O)NC(=O)CCCCCCCCCCCCCCCCC (some centres not stated) | > 200 | > 200 | > 200 | > 200 |  |  |  |  |  |  |  |  |  |  | 
2 | CCCCCCCCCCCCC/C=C/[C@@H](O)[C@H](CO[C@@H]1O[C@H](CO)[C@@H](O[C@@H]2O[C@H](CO)[C@H](O)[C@H](O[C@]3(C(=O)O)C[C@H](O)[C@@H](NC(=O)c4cccc([N+](=O)[O-])c4)C([C@@H](O)[C@H](O)CO)O3)[C@H]2O)[C@H](O)[C@H]1O)NC(=O)CCCCCCCCCCCCCCCCC (some centres not stated) | > 200 | > 200 | > 200 | > 200 | 9.3 | Active |  |  |  |  |  |  |  |  | 
3 | CCCCCCCCCCCCC/C=C/[C@@H](O)[C@H](CO[C@@H]1O[C@H](CO)[C@@H](O[C@@H]2O[C@H](CO)[C@H](O)[C@H](O[C@]3(C(=O)O)C[C@H](O)[C@@H](NC(=O)c4cc(C)cc(C)c4)C([C@@H](O)[C@H](O)CO)O3)[C@H]2O)[C@H](O)[C@H]1O)NC(=O)CCCCCCCCCCCCCCCCC (some centres not stated) | > 200 | > 200 | > 200 | > 200 |  |  |  |  |  |  |  |  |  |  | 
4 | CCCCCCCCCCCCC/C=C/[C@@H](O)[C@H](CO[C@@H]1O[C@H](CO)[C@@H](O[C@@H]2O[C@H](CO)[C@H](O)[C@H](O[C@]3(C(=O)O)C[C@H](O)[C@@H](NC(=O)Cc4ccc(Br)cc4)C([C@@H](O)[C@H](O)CO)O3)[C@H]2O)[C@H](O)[C@H]1O)NC(=O)CCCCCCCCCCCCCCCCC (some centres not stated) | > 200 | > 200 | > 200 | > 200 |  |  |  |  |  |  |  |  |  |  | 
5 | CCCCCCCCCCCCC/C=C/[C@@H](O)[C@H](CO[C@@H]1O[C@H](CO)[C@@H](O[C@@H]2O[C@H](CO)[C@H](O)[C@H](O[C@]3(C(=O)O)C[C@H](O)[C@@H](NC(=O)Cc4ccc(C)cc4)C([C@@H](O)[C@H](O)CO)O3)[C@H]2O)[C@H](O)[C@H]1O)NC(=O)CCCCCCCCCCCCCCCCC (some centres not stated) | > 200 | > 200 | > 200 | > 200 |  |  |  |  |  |  |  |  |  |  | 
6 | CCCCCCCCCCCCC/C=C/[C@@H](O)[C@H](CO[C@@H]1O[C@H](CO)[C@@H](O[C@@H]2O[C@H](CO)[C@H](O)[C@H](O[C@]3(C(=O)O)C[C@H](O)[C@@H](NC(=O)Cc4cccc([N+](=O)[O-])c4)C([C@@H](O)[C@H](O)CO)O3)[C@H]2O)[C@H](O)[C@H]1O)NC(=O)CCCCCCCCCCCCCCCCC (some centres not stated) | > 200 | > 200 | > 200 | > 200 | 18.8 | Active | Active | Active | Active | 0.467 | Active | Active | inactive | 49.3 | Active
